The target in the test is HIV-1 wild-type protease (Human immunodeficiency virus type 1 group M subtype B, UniProt P04585). The test can be described thus: Fluorometric HIV-1 protease assay (SensoLyte 520 HIV Protease Assay Kit). It counts as biochemical. The following applies: for enzyme inhibition (relative activity): at 1 μM, 100 nM and 10 nM. As to the method: The inhibitory effects of the described compounds against HIV-1 wild-type protease were assessed utilizing the fluorometric HIV-1 protease assay kit (SensoLyte 520 HIV Protease Assay Kit AS-71147, AnaSpec Inc., USA), following the manufacturer’s recommended protocol. […] Additionally, 0.01% (v/v) DMSO was employed as the negative control. […] The tested compounds 9a–g were dissolved in 100% DMSO and further diluted with the assay buffer provided in the kit to varying concentrations. The fluorescence was measured in kinetic mode at 490 nm (excitation) and 520 nm (emission) for 90 min at 37 °C using the Varioskan LUX multimode microplate reader (Thermo Fisher Scientific Inc. USA). The raw data obtained were subsequently normalized relative to the controls, with 0.01% DMSO set as 0% inhibitory activity. The IC50 values were calculated by fitting the data to a four-parameter log(inhibitor) vs response equation using GraphPad Prism version 9.5.0 (GraphPad Software, San Diego, California, USA).

Several values for one entry are separate records, joined by “and”; a condition that tells them apart may be missing. Equal entries are not always repeated.

Turning to `C[C@H](NC(=O)C(Cc1ccccc1)CP(=O)(O)CC(Cc1ccccc1)C(=O)N[C@@H](C)C(N)=O)C(N)=O` (stereo partly drawn) [Compound 9b, Bis(3-(((S)-1-amino-1-oxopropan-2-yl)amino)-2-benzyl-3-oxopropyl)phosphinic Acid], where the note is “result in words”, the “enzyme inhibition (relative activity)” value is on record as “only weak inhibition”.
As for `CC(C)[C@H](NC(=O)C(Cc1ccccc1)CP(=O)(O)CC(Cc1ccccc1)C(=O)N[C@H](C(N)=O)C(C)C)C(N)=O` (stereo partly drawn) [Compound 9c, Bis(3-(((S)-1-amino-3-methyl-1-oxobutan-2-yl)amino)-2-benzyl-3-oxopropyl)phosphinic Acid], the IC50 – broadly, the concentration that inhibits the measured activity by half – (IC50, wild-type HIV-1 protease, four-parameter log(inhibitor) vs response fit) is 33 nM and 33.1 nM. Also, the inhibitory effect result (at 1 μM and 100 nM, result in words) is “pronounced inhibitory effect comparable to that of Darunavir”.
As to `NC(=O)CNC(=O)C(Cc1ccccc1)CP(=O)(O)CC(Cc1ccccc1)C(=O)NCC(N)=O` (stereo not shown) [Compound 9a, Bis(3-((2-amino-2-oxoethyl)amino)-2-benzyl-3-oxopropyl)phosphinic Acid], the “enzyme inhibition (relative activity)” value (result in words) was “did not exhibit any significant inhibitory effect”.
On the same count and under the same terms, next, `NC(=O)[C@H](Cc1ccccc1)NC(=O)C(Cc1ccccc1)CP(=O)(O)CC(Cc1ccccc1)C(=O)N[C@@H](Cc1ccccc1)C(N)=O` (stereo partly drawn) [Compound 9e, Bis(3-(((S)-1-amino-1-oxo-3-phenylpropan-2-yl)amino)-2-benzyl-3-oxopropyl)phosphinic Acid]: “only weak inhibition”.
The same measure, in the same setting: next, `NC(=O)[C@@H]1CCCN1C(=O)C(Cc1ccccc1)CP(=O)(O)CC(Cc1ccccc1)C(=O)N1CCC[C@H]1C(N)=O` (stereo partly drawn) [Compound 9f, Bis(2-benzyl-3-((S)-2-carbamoylpyrrolidin-1-yl)-3-oxopropyl)phosphinic Acid]: “did not exhibit any significant inhibitory effect”; `CC(C)C[C@H](NC(=O)C(Cc1ccccc1)CP(=O)(O)CC(Cc1ccccc1)C(=O)N[C@@H](CC(C)C)C(N)=O)C(N)=O` (stereo partly drawn) [Compound 9d, Bis(3-(((S)-1-amino-4-methyl-1-oxopentan-2-yl)amino)-2-benzyl-3-oxopropyl)phosphinic Acid]: “moderate level of enzyme inhibition”.
